Tests used:
[1] = test system: reserpine-induced mice migraine; assay: Reserpine-induced mice migraine; assay type: in vivo, ICR mice; details: for Blood coagulation time: reserpine 0.2 mg/kg sc mice, 1 h after final administration; for brain tissue 5-HT / Times of tail suspension (struggling times within 2 min): reserpine mice; for Times of tail suspension (struggling times within 2 min): 9th day
Procedure: The mice in the blank control group and model group were administered intragastrically via a solvent from the 5th day after modeling, and the rest groups of mice were respectively administered corresponding medicaments and doses for intragastric administration for 10 consecutive days; 1 h later after the final administration, the mice were weighed; blood was taken at inner canthus to detect blood coagulation time; whole blood was taken, and cerebrum was taken on an ice and preserved at -20° C. for the subsequent experiment.
Behavioral test: tail suspension activity was performed; the position 1 cm away from the tail of the mice was glued by an adhesive tape on the 9th day of the test, and the adhesive tape was penetrated by a steel needle, and hung in a dark box such that the mice were hung upside down; then the mice struggling times (total number of overturning from hanging) within 2 min were observed.
The mice were weighed 1 h later after the final administration; blood of inner canthus was taken via a capillary to detect the blood coagulation time.
Blood was taken to detect the content of 5-HT in serum via high-performance liquid chromatography. Cerebrum was taken on an ice and precooled and cleaned slightly with 0.5% sodium carboxymethylcellulose, and then sucked dry with a filter paper, and placed into a cryogenic tube, and preserved at -20° C. for further use, then the content of 5-HT in brain tissues was detected by high performance liquid chromatography.
5-HT test method: a sample was precipitated with 10% perchloric acid solution according to 1:1, and then centrifuged to take supernatant for test. Chromatographic conditions: the chromatographic column is a SHIMADZU VP-ODS C18 column (250*4.6 mm, 5 um), the mobile phase is a methanol-0.01 mol/L potassium acetate buffer solution (10:90, V/V, PH is adjusted to 4.00 with 0.2 mol/L citric acid) for gradient elution; the column temperature is 25° C., flow rate is 1.00 ml/min and test wavelength is 275 nm.

[2] = test system: mice with inflammatory pain; assay: Pain threshold of mice with inflammatory pain (complete Freund's adjuvant); assay type: in vivo, SD mice; details: for Pain threshold: complete Freund's adjuvant paw model
Procedure: […] (180±20) g were injected with a complete Freund’s adjuvant (50 µL/piece) at the right rear plantar of mice, and mice in the control group were injected with the corresponding volume of 0.5% sodium carboxymethylcellulose to establish a paw edema inflammatory pain model. After modeling, the mice were administered for 7 d continuously, and administered intragastrically once per day. Pain thresholds (s) of the mice were respectively determined on the 1st, 3rd and 7th day before administration and after modeling at different periods of time.
Grouping and administration were the same as those of Example 40.

[3] = test system: ulcerative colitis mice; assay: Mice ulcerative colitis (DSS); assay type: in vivo, BALB/c mice; details: for Total times of hematochezia within the four periods / Colon length / IL-1 content: DSS mice; for Colon length: four periods; for IL-1 content: serum, ELISA
Excerpt: Healthy male SPF-level BALB/c mice (8-week old and body mass: (20±2) g).
Modeling: the mice were randomly divided into […] at the end of the quarantine, 10 pieces for each group. The mice in the normal group drank normal water freely, and the rest groups of mice drank 1.0%-1.5% DSS solution freely for modeling, 7 d later after modeling, the mice in the modeling group drank normal water freely for 7 d, and 14 d served as a modeling period for four continuous periods, and the mice in the modeling group were administered at the same time.
End point of the experiment: experimental administration was performed for four periods, and dissection was performed on the 3rd and 4th day of the recovery period of the 4th period.
Test indicators: the mice were weighed twice a week after the beginning of the administration; diarrhea and hematochezia of the mice were observed, and times of hematochezia were recorded.
At the end of the experiment, the mice were dissected and weighed, and narcotized to take blood, then serum was preserved at -80° C. Spleen was taken and weighed to calculate the spleen index. The content of IL-1β in serum was detected via ELISA. Colorectum was cut and taken to measure the length of colorectum, then immobilized by formaldehyde and dyed by HE to detect the pathological change.

[4] = test system: mice pain response induced by hot plate; assay: Mice pain response induced by hot plate; assay type: in vivo, ICR mice; details: for Pain threshold: hot plate 55°C
Procedure: Female ICR mice (20±2) g were placed on an intelligent hot plate at 55±0.5° C., and latency (s) that the plantar of mice touched the hot plate until the occurrence of a hind paws licking response served as a pain threshold indicator; the mice (response latency <5 s or >30 s) or jumping mice were eliminated.
Grouping and administration were the same as those in Example 40.
The mice were continuously administered intragastrically for 7 consecutive days; the pain threshold of each group of mice was respectively determined once at 30, 60, 90 and 120 min after the final administration; the pain threshold greater than 60 s was calculated by 60 s.

[5] = high dose 30 mg/kg ig once per day, 0 d
[6] = high dose 30 mg/kg ig once per day, 1 d
[7] = high dose 30 mg/kg ig once per day, 3 d
[8] = high dose 30 mg/kg ig once per day, 7 d
[9] = low dose 7.5 mg/kg ig once per day, 0 d
[10] = low dose 7.5 mg/kg ig once per day, 1 d
[11] = low dose 7.5 mg/kg ig once per day, 3 d
[12] = low dose 7.5 mg/kg ig once per day, 7 d
[13] = middle dose 15 mg/kg ig once per day, 0 d
[14] = middle dose 15 mg/kg ig once per day, 1 d
[15] = middle dose 15 mg/kg ig once per day, 3 d
[16] = middle dose 15 mg/kg ig once per day, 7 d
[17] = high dose 30 mg/kg ig 7 d, 30 min after final administration
[18] = high dose 30 mg/kg ig 7 d, 60 min
[19] = high dose 30 mg/kg ig 7 d, 90 min
[20] = high dose 30 mg/kg ig 7 d, 120 min
[21] = low dose 7.5 mg/kg ig 7 d, 30 min after final administration
[22] = low dose 7.5 mg/kg ig 7 d, 60 min
[23] = low dose 7.5 mg/kg ig 7 d, 90 min
[24] = low dose 7.5 mg/kg ig 7 d, 120 min
[25] = middle dose 15 mg/kg ig 7 d, 30 min after final administration
[26] = middle dose 15 mg/kg ig 7 d, 60 min
[27] = middle dose 15 mg/kg ig 7 d, 90 min
[28] = middle dose 15 mg/kg ig 7 d, 120 min

O=C(Nc1ccc(Cl)cc1)C1CCN(C(=O)c2ccc(O)cc2)CC1 [MAGLZ-II-10]
Blood coagulation time ([1]; high dose 30 mg/kg ig 10 d): 148.00±30.23 S | Blood coagulation time ([1]; low dose 7.5 mg/kg ig 10 d): 113.25±23.31 S | Blood coagulation time ([1]; middle dose 15 mg/kg ig 10 d): 125.25±19.31 S | brain tissue 5-HT ([1]; high dose 30 mg/kg ig 10 d): 0.90 ± 0.21 nmol/g | Times of tail suspension (struggling times within 2 min) ([1]; high dose 30 mg/kg ig): 11.63±1.85 | brain tissue 5-HT ([1]; low dose 7.5 mg/kg ig 10 d): 0.85 ± 0.20 nmol/g | Times of tail suspension (struggling times within 2 min) ([1]; low dose 7.5 mg/kg ig): 9.25±2.66 | brain tissue 5-HT ([1]; middle dose 15 mg/kg ig 10 d): 1.05 ± 0.14 nmol/g | Times of tail suspension (struggling times within 2 min) ([1]; middle dose 15 mg/kg ig): 10.63±1.19 | Pain threshold [2, 5]: 12.93 ± 2.26 s | Pain threshold [2, 6]: 5.67 ± 0.93 s | Pain threshold [2, 7]: 7.95 ± 0.66 s | Pain threshold [2, 8]: 8.93 ± 0.61 s | Pain threshold [2, 9]: 12.71 ± 2.47 s | Pain threshold [2, 10]: 5.59 ± 0.89 s | Pain threshold [2, 11]: 7.15 ± 0.59 s | Pain threshold [2, 12]: 8.33 ± 0.57 s | Pain threshold [2, 13]: 12.77 ± 2.48 s | Pain threshold [2, 14]: 5.62 ± 0.84 s | Pain threshold [2, 15]: 7.18 ± 0.55 s | Pain threshold [2, 16]: 8.36 ± 0.59 s | Total times of hematochezia within the four periods ([3]; high dose 30 mg/kg ig): 35.15±4.52 | Colon length ([3]; high dose 30 mg/kg ig): 6.35±0.61 cm | IL-1 content ([3]; high dose 30 mg/kg ig): 47.25 ± 6.37 pg/mL | Total times of hematochezia within the four periods ([3]; low dose 7.5 mg/kg ig): 38.40±5.02 | Colon length ([3]; low dose 7.5 mg/kg ig): 5.92±0.66 cm | IL-1 content ([3]; low dose 7.5 mg/kg ig): 51.81 ± 7.86 pg/mL | Total times of hematochezia within the four periods ([3]; middle dose 15 mg/kg ig): 38.20±7.83 | Colon length ([3]; middle dose 15 mg/kg ig): 5.72±0.60 cm | IL-1 content ([3]; middle dose 15 mg/kg ig): 50.83 ± 7.79 pg/mL | Pain threshold [4, 17]: 17.73 ± 6.20 s | Pain threshold [4, 18]: 19.77 ± 6.73 s | Pain threshold [4, 19]: 25.25 ± 7.01 s | Pain threshold [4, 20]: 24.90 ± 5.73 s | Pain threshold [4, 21]: 16.37 ± 6.00 s | Pain threshold [4, 22]: 17.93 ± 5.75 s | Pain threshold [4, 23]: 19.24 ± 4.72 s | Pain threshold [4, 24]: 19.14 ± 4.63 s | Pain threshold [4, 25]: 16.67 ± 5.97 s | Pain threshold [4, 26]: 18.79 ± 5.95 s | Pain threshold [4, 27]: 22.43 ± 5.31 s | Pain threshold [4, 28]: 20.60 ± 4.64 s

O=C(Nc1cccc(Cl)c1)C1CCN(C(=O)c2cc3ccccc3[nH]2)CC1 [MAGLZ-II-18]
blood coagulation time, in words ([1]; compared with the model group): significantly extend | level of 5-HT in the brain tissue, in words ([1]; compared with the model group): significantly increase | times of the tail suspension activity, in words ([1]; compared with the model group): significantly increase | Blood coagulation time ([1]; high dose 30 mg/kg ig 10 d): 241.5 ± 41.63 S | Blood coagulation time ([1]; low dose 7.5 mg/kg ig 10 d): 186.5±51.71 S | Blood coagulation time ([1]; middle dose 15 mg/kg ig 10 d): 212.63±46.02 S | brain tissue 5-HT ([1]; high dose 30 mg/kg ig 10 d): 2.08 ± 0.59 nmol/g | Times of tail suspension (struggling times within 2 min) ([1]; high dose 30 mg/kg ig): 16.51±4.38 | brain tissue 5-HT ([1]; low dose 7.5 mg/kg ig 10 d): 1.13 ± 0.45 nmol/g | Times of tail suspension (struggling times within 2 min) ([1]; low dose 7.5 mg/kg ig): 11.88±4.02 | brain tissue 5-HT ([1]; middle dose 15 mg/kg ig 10 d): 1.54 ± 0.54 nmol/g | Times of tail suspension (struggling times within 2 min) ([1]; middle dose 15 mg/kg ig): 13.75±4.56 | pain threshold of the mice with inflammatory pain, in words ([2]; compared with the model group): significantly extend | Pain threshold [2, 5]: 12.85±2.26^∗∗ s | Pain threshold [2, 6]: 6.95±0.85^∗∗ s | Pain threshold [2, 7]: 8.49±1.15^∗∗ s | Pain threshold [2, 8]: 9.62±0.93^∗∗ s | Pain threshold [2, 9]: 12.73±2.43^∗ s | Pain threshold [2, 10]: 6.39±0.91^∗ s | Pain threshold [2, 11]: 8.12±1.29^∗ s | Pain threshold [2, 12]: 9.16±1.17^∗ s | Pain threshold [2, 13]: 12.86±2.25^∗∗ s | Pain threshold [2, 14]: 6.62±0.69^∗∗ s | Pain threshold [2, 15]: 8.24±0.73^∗∗ s | Pain threshold [2, 16]: 9.51±1.15^∗∗ s | Total times of hematochezia within the four periods ([3]; high dose 30 mg/kg ig): 32.80±4.37 | Colon length ([3]; high dose 30 mg/kg ig): 6.73±0.63 cm | IL-1 content ([3]; high dose 30 mg/kg ig): 46.98 ± 7.56 pg/mL | Total times of hematochezia within the four periods ([3]; low dose 7.5 mg/kg ig): 32.80±4.64 | Colon length ([3]; low dose 7.5 mg/kg ig): 6.44±0.64 cm | IL-1 content ([3]; low dose 7.5 mg/kg ig): 46.15 ± 9.65 pg/mL | Total times of hematochezia within the four periods ([3]; middle dose 15 mg/kg ig): 33.90±4.77 | Colon length ([3]; middle dose 15 mg/kg ig): 6.37±0.39 cm | IL-1 content ([3]; middle dose 15 mg/kg ig): 49.01 ± 5.65 pg/mL | IL-1 content, in words ([3]; compared with the model group): decrease | colon length, in words ([3]; compared with the model group): significantly increase | total times of hematochezia, in words ([3]; compared with the model group): reduce | pain thresholds of the thermal-stimulus mice, in words ([4]; compared with the model group): significantly extend | Pain threshold [4, 17]: 26.73 ± 7.37 s | Pain threshold [4, 18]: 27.22 ± 7.29 s | Pain threshold [4, 19]: 27.86 ± 7.93 s | Pain threshold [4, 20]: 27.62 ± 10.01 s | Pain threshold [4, 21]: 26.33 ± 7.52 s | Pain threshold [4, 22]: 26.74 ± 7.05 s | Pain threshold [4, 23]: 27.16 ± 7.32 s | Pain threshold [4, 24]: 26.64 ± 10.03 s | Pain threshold [4, 25]: 26.41 ± 7.53 s | Pain threshold [4, 26]: 27.09 ± 7.53 s | Pain threshold [4, 27]: 27.58 ± 7.71 s | Pain threshold [4, 28]: 27.38 ± 9.97 s

From patent publication US20230090255A1, “MAGL INHIBITOR, PREPARATION METHOD THEREFOR AND USE THEREOF” (LUNAN PHARMACEUTICAL GROUP CORPORATION, priority 2019, published 2023)
